Experimental data taken from US8741897B2, “Glucocorticoid mimetics, methods of making them, pharmaceutical compositions and uses thereof” (Boehringer Ingelheim Pharmaceuticals Inc., priority 2003, dated 2014).

tested on: glucocorticoid receptor function; experiment: one or more of the above assays (GR binding and glucocorticoid receptor cell assays: aromatase, IL-6, TAT, MMTV-Luc, IL-8, ICAM-Luc); assay type: cell-based; details: assay not specified per compound

**Q.** For `CC(C)c1ncc2[nH]c(CC(O)(CC(C)(C)c3cc(Cl)cc4c3OCC4)C(F)(F)F)cc2n1` (centres unmarked) [4-(5-Chloro-2,3-dihydrobenzofuran-7-yl)-1,1,1-trifluoro-2-(2-isopropyl-5H-pyrrolo[3,2-d]pyrimidin-6-ylmethyl)-4-methylpentan-2-ol], which “activity as agonists of the glucocorticoid receptor function in one or more of the above assays” value (“activity as agonists” below) is on record?
**A.** potent agonists

**Q.** `COc1ccc(C)cc1C(C)(C)CC(O)(Cc1cc2nc(N3CCCC3)ncc2[nH]1)C(F)(F)F` (centres unmarked) [1,1,1-Trifluoro-4-(2-methoxy-5-methylphenyl)-4-methyl-2-(2-pyrrolidin-1-yl-5H-pyrrolo[3,2-d]pyrimidin-6-ylmethyl)pentan-2-ol] was tested. Which “activity as agonists” value did it give?
**A.** potent agonists

**Q.** For `COc1ccc(Br)cc1C(C)(C)CC(O)(Cc1cc2cc(N(C)C)ncc2[nH]1)C(F)(F)F` (centres unmarked) [4-(5-Bromo-2-methoxyphenyl)-2-(5-dimethylamino-1H-pyrrolo[2,3-c]pyridin-2-ylmethyl)-1,1,1-trifluoro-4-methylpentan-2-ol], which “activity as agonists” value is on record?
**A.** potent agonists

**Q.** How did the “activity as agonists” value turn out when `Cc1cc(C#N)cc2[nH]c(CC(O)(CC(C)(C)c3cc(S(C)(=O)=O)cc4c3OCC4)C(F)F)cc12` (centres unmarked) [2-[2-Difluoromethyl-2-hydroxy-4-(5-methanesulfonyl-2,3-dihydrobenzofuran-7-yl)-4-methylpentyl]-4-methyl-1H-indole-6-carbonitrile] was run?
**A.** agonists

**Q.** For `Cc1c(CC(O)(CC(C)(C)c2cccc(F)c2)C(F)(F)F)[nH]c2cnccc12` (centres unmarked) [1,1,1-Trifluoro-4-(3-fluorophenyl)-4-methyl-2-(3-methyl-1H-pyrrolo[2,3-c]pyridin-2-ylmethyl)pentan-2-ol], which “activity as agonists” value is on record?
**A.** potent agonists

**Q.** With `CC(C)(CC(O)(Cc1cc2nc(CN3CCOCC3)ccc2[nH]1)C(F)(F)F)c1cc(Cl)cc2c1OCC2` (centres unmarked) [4-(5-Chloro-2,3-dihydrobenzofuran-7-yl)-1,1,1-trifluoro-4-methyl-2-(5-morpholin-4-ylmethyl-1H-pyrrolo[3,2-b]pyridin-2-ylmethyl)pentan-2-ol] as the compound, how does the “activity as agonists” value read?
**A.** potent agonists

**Q.** How did the “activity as agonists” value turn out when `COc1ccc(-c2cncnc2)cc1C(C)(C)CC(O)(Cc1cc2cc(Cl)ncc2[nH]1)C(F)(F)F` (centres unmarked) [2-(5-Chloro-1H-pyrrolo[2,3-c]pyridin-2-ylmethyl)-1,1,1-trifluoro-4-(2-methoxy-5-pyrimidin-5-ylphenyl)-4-methylpentan-2-ol] was run?
**A.** potent agonists

**Q.** With `COc1cc(F)ccc1C(C)(C)CC(O)(Cc1cc2c(C)nccc2[nH]1)C(F)(F)F` (centres unmarked) [1,1,1-Trifluoro-4-(4-fluoro-2-methoxyphenyl)-4-methyl-2-(4-methyl-1H-pyrrolo[3,2-c]pyridin-2-ylmethyl)pentan-2-ol] as the compound, how does the “activity as agonists” value read?
**A.** potent agonists

**Q.** With `COc1ccc2[nH]c(CC(O)(CC(C)(C)c3cc(Cl)cc4c3OCC4)C(F)(F)F)cc2n1` (centres unmarked) [4-(5-Chloro-2,3-dihydrobenzofuran-7-yl)-1,1,1-trifluoro-2-(5-methoxy-1H-pyrrolo[3,2-b]pyridin-2-ylmethyl)-4-methylpentan-2-ol] as the compound, how does the “activity as agonists” value read?
**A.** potent agonists

**Q.** How did the “activity as agonists” value turn out when `CC(C)(CC(O)(Cc1cc2cc(-c3cncnc3)ccc2[nH]1)C(F)(F)F)c1cc(F)cc2c1OCC2` (centres unmarked) [1,1,1-Trifluoro4-(5-fluoro-2,3-dihydrobenzofuran-7-yl)-4-methyl-2-(5-pyrimidin-5-yl-1H-indol-2-ylmethyl)pentan-2-ol] was run?
**A.** potent agonists

**Q.** How did the “activity as agonists” value turn out when `Cc1ccc(F)c2[nH]c(CC(O)(CC(C)(C)c3cc(S(C)(=O)=O)cc4c3OCC4)C(F)(F)F)cc12` (centres unmarked) [1,1,1-Trifluoro-2-(7-fluoro-4-methyl-1H-indol-2-ylmethyl)-4-(5-methanesulfonyl-2,3-dihydrobenzofuran-7-yl)-4-methylpentan-2-ol] was run?
**A.** potent agonists

**Q.** Which “activity as agonists” value does the source give for `CC(C)(CC(O)(Cc1cc2cc(N3CCOCC3)ncc2[nH]1)C(F)(F)F)c1cccc(-c2cncnc2)c1` (centres unmarked) [1,1,1-Trifluoro-4-methyl-2-(5-morpholin-4-yl-1H-pyrrolo[2,3-c]pyridin-2-ylmethyl)-4-(3-pyrimidin-5-ylphenyl)pentan-2-ol] here?
**A.** potent agonists

**Q.** With `CC(C)(CC(O)(Cc1cc2nc(-c3ccccc3)ncc2[nH]1)C(F)(F)F)c1cccc(F)c1` (centres unmarked) [1,1,1-Trifluoro-4-(3-fluorophenyl)-4-methyl-2-(2-phenyl-5H-pyrrolo[3,2-d]pyrimidin-6-ylmethyl)pentan-2-ol] as the compound, how does the “activity as agonists” value read?
**A.** potent agonists

**Q.** `CC(C)(CC(O)(Cc1cc2cc(Oc3ccccc3)ncc2[nH]1)C(F)(F)F)c1cc(-c2cccnc2)ccc1O` (centres unmarked) [4-Pyridin-3-yl-2-[4,4,4-trifluoro-3-hydroxy-1,1-dimethyl-3-(5-phenoxy-1H-pyrrolo[2,3-c]pyridin-2-ylmethyl)butyl]phenol] was tested. Which “activity as agonists” value did it give?
**A.** potent agonists

**Q.** With `CC(C)(CC(O)(Cc1cc2ncncc2[nH]1)C(F)(F)F)c1cc(F)cc2c1OCC2` (centres unmarked) [1,1,1-Trifluoro-4-(5-fluoro-2,3-dihydrobenzofuran-7-yl)-4-methyl-2-(5H-pyrrolo[3,2-d]pyrimidin-6-ylmethyl)pentan-2-ol] as the compound, how does the “activity as agonists” value read?
**A.** potent agonists

**Q.** `COc1ccc(F)cc1C(C)(C)CC(O)(Cc1cc2cnccc2[nH]1)C(C)C` (centres unmarked) [5-(5-Fluoro-2-methoxyphenyl)-2,5-dimethyl-3-(1H-pyrrolo[3,2-c]pyridin-2-ylmethyl)hexan-3-ol] was tested. Which “activity as agonists” value did it give?
**A.** agonists

**Q.** With `CC(C)(CC(O)(Cn1ccc2c1CCCC2=O)C(F)(F)F)c1cc(-c2cccnc2)ccc1O` (centres unmarked) [1-[2-Hydroxy-4-(2-hydroxy-5-pyridin-3-ylphenyl)-4-methyl-2-trifluoromethylpentyl]-1,5,6,7-tetrahydroindol-4-one] as the compound, how does the “activity as agonists” value read?
**A.** agonists

**Q.** With `COc1ccc(F)cc1C(C)(C)CC(O)(Cc1cc2cc(N3CCOCC3)ncc2[nH]1)C(F)(F)F` (centres unmarked) [1,1,1-Trifluoro-4-(5-fluoro-2-methoxyphenyl)-4-methyl-2-(5-morpholin-4-yl-1H-pyrrolo[2,3-c]pyridin-2-ylmethyl)pentan-2-ol] as the compound, how does the “activity as agonists” value read?
**A.** potent agonists

**Q.** For `COc1ccc(-c2cccnc2)cc1C(C)(C)CC(O)(Cc1cc2ccncc2[nH]1)C(F)(F)F` (centres unmarked) [1,1,1-Trifluoro-4-(2-methoxy-5-pyridin-3-ylphenyl)-4-methyl-2-(1H-pyrrolo[2,3-c]pyridin-2-ylmethyl)pentan-2-ol], which “activity as agonists” value is on record?
**A.** potent agonists

**Q.** With `COc1ccc(-c2ccccc2Cl)cc1C(C)(C)CC(O)(Cc1cc2cc(N3CCOCC3)ncc2[nH]1)C(F)(F)F` (centres unmarked) [4-(2′-Chloro-4-methoxybiphenyl-3-yl)-1,1,1-trifluoro-4-methyl-2-(5-morpholin-4-yl-1H-pyrrolo[2,3-c]pyridin-2-ylmethyl)pentan-2-ol] as the compound, how does the “activity as agonists” value read?
**A.** potent agonists

**Q.** How did the “activity as agonists” value turn out when `CC(C)(CC(O)(Cn1ccc2ncccc21)C(F)F)c1cc(Cl)cc2c1OCC2` (centres unmarked) [4-(5-Chloro-2,3-dihydrobenzofuran-7-yl)-1,1-difluoro-4-methyl-2-pyrrolo[3,2-b]pyridin-1-ylmethylpentan-2-ol] was run?
**A.** agonists

**Q.** `COc1ccc(-c2cncnc2)cc1C(C)(C)CC(O)(Cn1ccc2c1CCCC2=O)C(F)(F)F` (centres unmarked) [1-[2-Hydroxy-4-(2-methoxy-5-pyrimidin-5-ylphenyl)-4-methyl-2-trifluoromethylpentyl]-1,5,6,7-tetrahydroindol-4-one] was tested. Which “activity as agonists” value did it give?
**A.** agonists

**Q.** For `COc1ccc(F)cc1C(C)(C)CC(O)(Cc1cc2nc(-c3ccccc3)ncc2[nH]1)C(F)(F)F` (centres unmarked) [1,1,1-Trifluoro-4-(5-fluoro-2-methoxyphenyl)-4-methyl-2-(2-phenyl-5H-pyrrolo[3,2-d]pyrimidin-6-ylmethyl)pentan-2-ol], which “activity as agonists” value is on record?
**A.** potent agonists

**Q.** `CC(C)(CC(O)(Cc1cc2cc(N3CCCCC3)ncc2[nH]1)C(F)(F)F)c1cccc(F)c1` (centres unmarked) [1,1,1-Trifluoro-4-(3-fluorophenyl)-4-methyl-2-(5-piperidin-1-yl-1H-pyrrolo[2,3-c]pyridin-2-ylmethyl)pentan-2-ol] was tested. Which “activity as agonists” value did it give?
**A.** potent agonists

**Q.** For `CC(C)(CC(O)(Cc1cc2nc(N3CCCC3)ncc2[nH]1)C(F)(F)F)c1cc(Cl)cc2c1OCC2` (centres unmarked) [4-(5-Chloro-2,3-dihydrobenzofuran-7-yl)-1,1,1-trifluoro-4-methyl-2-(2-pyrrolidin-1-yl-5H-pyrrolo[3,2-d]pyrimidin-6-ylmethyl)pentan-2-ol], which “activity as agonists” value is on record?
**A.** potent agonists

**Q.** With `COc1ccc(F)cc1C(C)(C)CC(O)(Cn1ccc2c1CCCC2=O)C(F)(F)F` (centres unmarked) [1-[4-(5-Fluoro-2-methoxyphenyl)-2-hydroxy-4-methyl-2-trifluoromethylpentyl]-1,5,6,7-tetrahydroindol-4-one] as the compound, how does the “activity as agonists” value read?
**A.** agonists

**Q.** With `COc1ccc(-c2cncnc2)cc1C(C)(C)CC(O)(Cc1cc2cc(OC(C)C)ncc2[nH]1)C(F)(F)F` (centres unmarked) [1,1,1-Trifluoro-2-(5-isopropoxy-1H-pyrrolo[2,3-c]pyridin-2-ylmethyl)-4-(2-methoxy-5-pyrimidin-5-ylphenyl)-4-methylpentan-2-ol] as the compound, how does the “activity as agonists” value read?
**A.** potent agonists

**Q.** Which “activity as agonists” value does the source give for `CC(C)(CC(O)(Cc1cc2cc(N3CCCCC3)ncc2[nH]1)C(F)(F)F)c1ccccc1` (centres unmarked) [1,1,1-Trifluoro-4-methyl-4-phenyl-2-(5-piperidin-1-yl-1H-pyrrolo[2,3-c]pyridin-2-ylmethyl)pentan-2-ol] here?
**A.** potent agonists

**Q.** For `Cc1ccc(F)cc1C(C)(C)CC(O)(Cc1cc2nc(CN3CCOCC3)ccc2[nH]1)C(F)(F)F` (centres unmarked) [1,1,1-Trifluoro-4-(5-fluoro-2-methylphenyl)-4-methyl-2-(5-morpholin-4-ylmethyl-1H-pyrrolo[3,2-b]pyridin-2-ylmethyl)pentan-2-ol], which “activity as agonists” value is on record?
**A.** potent agonists
